Data as given in patent US9073911B2, “Pyrazole derivatives” (HOFFMANN-LA ROCHE INC., priority 2011, dated 2015).
Structures can show the parent of a compound that is named as a salt.

Legend:
mouse TAAR1 = mouse TAAR1 (Mus musculus (Mouse), UniProt Q923Y8); assay: Radioligand binding assay on mouse TAAR1; settings: membranes of HEK-293 cells stably expressing mouse TAAR1; first value of cell mouse/rat
Procedure: (§1) Construction of TAAR Expression Plasmids and Stably Transfected Cell Lines
(§2) For the construction of expression plasmids the coding sequences of human, rat and mouse TAAR 1 were amplified from genomic DNA essentially as described by Lindemann et al.. The Expand High Fidelity PCR System (Roche Diagnostics) was used with 1.5 mM Mg^2+ and purified PCR products were cloned into pCR2.1-TOPO cloning vector (Invitrogen) following the instructions of the manufacturer. PCR products were subcloned into the pIRESneo2 vector (BD Clontech, Palo Alto, Calif.), and expression vectors were sequence verified before introduction in cell lines.
(§3) HEK293 cells (ATCC # CRL-1573) were cultured essentially as described by Lindemann et al. (2005). For the generation of stably transfected cell lines HEK293 cells were transfected with the pIRESneo2 expression plasmids containing the TAAR coding sequences (described above) with Lipofectamine 2000 (Invitrogen) according to the instructions of the manufacturer, and 24 hrs post transfection the culture medium was supplemented with 1 mg/ml G418 (Sigma, Buchs, Switzerland). After a culture period of about 10 d clones were isolated, expanded and tested for responsiveness to trace amines (all compounds purchased from Sigma) with the cAMP Biotrak Enzyme immunoassay (EIA) System (Amersham) following the non-acetylation EIA procedure provided by the manufacturer.
Radioligand Binding Assay on Mouse TAAR1
(§4) Membrane Preparation and Radioligand Binding.
HEK-293 cells stably expressing mouse TAAR1 were maintained at 37° C. and 5% CO2 in DMEM high glucose medium, containing fetal calf serum (10%, heat inactivated for 30 min at 56° C.), penicillin/streptomycin (1%), and 375 μg/ml geneticin (Gibco). Cells were released from culture flasks using trypsin/EDTA, harvested, washed twice with ice-cold PBS (without Ca^2+ and Mg^2+), pelleted at 1,000 rpm for 5 min at 4° C., frozen and stored at −80° C. Frozen pellets were suspended in 20 ml HEPES-NaOH (20 mM, pH 7.4) containing 10 mM EDTA and homogenized with a Polytron (PT 6000, Kinematica) at 14,000 rpm for 20 s. The homogenate was centrifuged at 48,000×g for 30 min at 4° C. Subsequently, the supernatant was removed and discarded, and the pellet resuspended in 20 ml HEPES-NaOH (20 mM, pH 7.4) containing 0.1 mM EDTA using the Polytron (20 s at 14,000 rpm). This procedure was repeated and the final pellet resuspended in HEPES-NaOH containing 0.1 mM EDTA and homogenized using the Polytron. Typically, aliquots of 2 ml membrane portions were stored at −80° C. With each new membrane batch the dissociation constant (Kd) was determined via a saturation curve. The TAAR1 radioligand ^3[H]—(S)-4-[(ethyl-phenyl-amino)-methyl]-4,5-dihydro-oxazol-2-ylamine (described in WO 2008/098857) was used at a concentration equal to the calculated Kd value, that was usually around 0.7 nM, resulting in the binding of approximately 0.5% of the radioligand and a specific binding representing approximately 70% of the total binding. Nonspecific binding was defined as the amount of ^3[H]—(S)-4-[(ethyl-phenyl-amino)-methyl]-4,5-dihydro-oxazol-2-ylamine bound in the presence of 10 μM unlabeled ligand. All compounds were tested at a broad range of concentrations ([…]) in duplicates. […] The 96 deep well plates were incubated for 1 hr at 4° C. Incubations were terminated by rapid filtration through Unifilter-96 plates (Packard Instrument Company) and glass filters GF/C (Perkin Elmer) presoaked for 1 hr in polyethylenimine (0.3%) and washed 3 times with 1 ml of cold binding buffer. After addition of 45 μl of Microscint 40 (PerkinElmer) the Unifilter-96 plate was sealed and after 1 hr the radioactivity counted using a TopCount Microplate Scintillation Counter (Packard Instrument Company).

rat TAAR1 = rat TAAR1 (Rattus norvegicus (Rat), UniProt Q923Y9); assay: Radioligand binding assay on rat TAAR1; settings: membranes of HEK-293 cells stably expressing rat TAAR1; second value of cell mouse/rat
Procedure: as §1, §2, §3
Radioligand Binding Assay on rat TAAR1
as §4
HEK-293 cells stably expressing rat TAAR1 were maintained at 37° C. and 5% CO2 in DMEM high glucose medium, containing fetal calf serum (10%, heat inactivated for 30 min at 56° C.), penicillin/streptomycin (1%), and 375 μg/ml geneticin (Gibco). Cells were released from culture flasks using trypsin/EDTA, harvested, washed twice with ice-cold PBS (without Ca^2+ and Mg^2+), pelleted at 1,000 rpm for 5 min at 4° C., frozen and stored at −80° C. Frozen pellets were suspended in 20 ml HEPES-NaOH (20 mM, pH 7.4) containing 10 mM EDTA and homogenized with a Polytron (PT 6000, Kinematica) at 14,000 rpm for 20 s. The homogenate was centrifuged at 48,000×g for 30 min at 4° C. Subsequently, the supernatant was removed and discarded, and the pellet resuspended in 20 ml HEPES-NaOH (20 mM, pH 7.4) containing 0.1 mM EDTA using the Polytron (20 s at 14,000 rpm). This procedure was repeated and the final pellet resuspended in HEPES-NaOH containing 0.1 mM EDTA and homogenized using the Polytron. Typically, aliquots of 2 ml membrane portions were stored at −80° C. With each new membrane batch the dissociation constant (Kd) was determined via a saturation curve.
Nonspecific binding was defined as the amount of ^3-[H]-(S)-4-[(ethyl-phenyl-amino)-methyl]-4,5-dihydro-oxazol-2-ylamine bound in the presence of 10 μM unlabeled ligand. All compounds were tested at a broad range of concentrations (10 pM to 10 μM) in duplicates. […] The 96 deep well plates were incubated for 1 hr at 4° C. Incubations were terminated by rapid filtration through Unifilter-96 plates (Packard Instrument Company) and glass filters GF/C (Perkin Elmer) presoaked for 1 hr in polyethylenimine (0.3%) and washed 3 times with 1 ml of cold binding buffer. After addition of 45 μl of Microscint 40 (PerkinElmer) the Unifilter-96 plate was sealed and after 1 hr the ratioactivity counted using a TopCount Microplate Scintillation Counter (Packard Instrument Company).

rat TAAR1, sequence (Q923Y9 whole entry): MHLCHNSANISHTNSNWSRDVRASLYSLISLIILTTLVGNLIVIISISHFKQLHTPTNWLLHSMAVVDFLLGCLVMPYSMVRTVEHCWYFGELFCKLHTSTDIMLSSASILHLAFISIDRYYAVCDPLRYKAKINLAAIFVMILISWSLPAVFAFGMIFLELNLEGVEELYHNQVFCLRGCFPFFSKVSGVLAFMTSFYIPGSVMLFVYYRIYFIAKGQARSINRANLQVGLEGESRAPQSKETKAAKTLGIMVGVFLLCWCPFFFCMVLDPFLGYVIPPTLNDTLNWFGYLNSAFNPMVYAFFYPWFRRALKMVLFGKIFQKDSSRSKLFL
mouse TAAR1, sequence (Q923Y8 whole entry): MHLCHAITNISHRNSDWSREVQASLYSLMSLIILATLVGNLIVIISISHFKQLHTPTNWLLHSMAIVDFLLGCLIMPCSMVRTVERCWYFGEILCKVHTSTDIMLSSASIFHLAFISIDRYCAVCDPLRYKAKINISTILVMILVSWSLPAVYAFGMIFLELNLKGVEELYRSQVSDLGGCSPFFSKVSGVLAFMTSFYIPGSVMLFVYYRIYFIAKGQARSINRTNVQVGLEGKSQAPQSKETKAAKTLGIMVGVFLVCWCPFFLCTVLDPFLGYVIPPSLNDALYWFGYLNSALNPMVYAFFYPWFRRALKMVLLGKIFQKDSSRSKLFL

SMILES	Ki (mouse TAAR1) [µM]	Ki (rat TAAR1) [µM]
O=C(Nc1ccc([C@@H]2CNCCO2)cc1)c1cc(-c2ccc(Cl)cc2)n[nH]1 [Example 12, (R)-3-(4-chlorophenyl)-N-(4-(morpholin-2-yl)phenyl)-1H-pyrazole-5-carboxamide hydrochloride]	0.0005	0.0004
N#Cc1ccc(F)c(-c2cc(C(=O)Nc3ccc([C@H]4CNCCO4)cc3)n[nH]2)c1 [Example 28, (S)-5-(5-cyano-2-fluorophenyl)-N-(4-(morpholin-2-yl)phenyl)-1H-pyrazole-3-carboxamide hydrochloride]	0.0043	0.0129
COc1ccc(-c2cc(C(=O)Nc3ccc([C@H]4CNCCO4)cc3)[nH]n2)cc1 [Example 7, (S)-3-(4-methoxyphenyl)-N-(4-(morpholin-2-yl)phenyl)-1H-pyrazole-5-carboxamide hydrochloride]	0.0012	0.0049
O=C(Nc1ccc([C@H]2CNCCO2)cc1)c1cc(-c2ccc(Cl)cc2)n[nH]1 [Example 14, (S)-3-(4-chlorophenyl)-N-(4-(morpholin-2-yl)phenyl)-1H-pyrazole-5-carboxamide hydrochloride]	0.0017	0.0028
O=C(Nc1ccc([C@H]2CNCCO2)cc1)c1cc(-c2ccc(F)cc2)[nH]n1 [Example 3, (S)-3-(4-fluorophenyl)-N-(4-(morpholin-2-yl)phenyl)-1H-pyrazole-5-carboxamide hydrochloride]	0.0008	0.0027
O=C(Nc1ccc([C@H]2CNCCO2)cc1)c1ccn(-c2ccc(C(F)(F)F)cn2)n1 [Example 33, (S)—N-(4-(Morpholin-2-yl)phenyl)-1-(5-(trifluoromethyl)pyridin-2-yl)-1H-pyrazole-3-carboxamide hydrochloride]	0.0028	0.0016
N#Cc1cccc(-c2cc(C(=O)Nc3ccc([C@H]4CNCCO4)cc3)n[nH]2)c1 [Example 20, (S)-5-(3-cyanophenyl)-N-(4-(morpholin-2-yl)phenyl)-1H-pyrazole-3-carboxamide hydrochloride]	0.0022	0.0074
O=C(Nc1ccc([C@H]2CNCCO2)cc1)c1cc(-c2ccccc2)[nH]n1 [Example 1, (S)—N-(4-(morpholin-2-yl)phenyl)-5-phenyl-1H-pyrazole-3-carboxamide hydrochloride]	0.0007	0.0043
O=C(Nc1ccc([C@H]2CNCCO2)cc1)c1ccn(-c2cncc(Cl)n2)n1 [Example 48, (S)-1-(6-Chloropyrazin-2-yl)-N-(4-(morpholin-2-yl)phenyl)-1H-pyrazole-3-carboxamide hydrochloride]	0.0086	0.0118
O=C(Nc1ccc([C@H]2CNCCO2)cc1)c1cc(-c2cccc(OC(F)F)c2)n[nH]1 [Example 40, (S)-3-(3-(Difluoromethoxy)phenyl)-N-(4-(morpholin-2-yl)phenyl)-1H-pyrazole-5-carboxamide hydrochloride]	0.0005	0.0013
O=C(Nc1ccc([C@H]2CNCCO2)cc1)c1cc(-c2cccc(Cl)c2)[nH]n1 [Example 2, (S)-3-(3-chlorophenyl)-N-(4-(morpholin-2-yl)phenyl)-1H-pyrazole-5-carboxamide hydrochloride]	0.0003	0.0004
O=C(Nc1ccc([C@H]2CNCCO2)cc1)c1cc(-c2ccccc2F)n[nH]1 [Example 8, (S)-3-(2-fluorophenyl)-N-(4-(morpholin-2-yl)phenyl)-1H-pyrazole-5-carboxamide hydrochloride]	0.0009	0.0073
Cn1nc(-c2cccc(OC(F)F)c2)cc1C(=O)Nc1ccc([C@H]2CNCCO2)cc1 [Example 44, (S)-3-(3-(Difluoromethoxy)phenyl)-1-methyl-N-(4-(morpholin-2-yl)phenyl)-1H-pyrazole-5-carboxamide hydrochloride]	0.0663	0.0262
O=C(Nc1ccc([C@@H]2CNCCO2)cc1)c1cc(-c2cccc(Cl)c2)n[nH]1 [Example 15, (R)-3-(3-chlorophenyl)-N-(4-(morpholin-2-yl)phenyl)-1H-pyrazole-5-carboxamide hydrochloride]	0.0006	0.0004
N#Cc1cccc(-c2cc(C(=O)Nc3ccc(C4CCNC4)cc3)[nH]n2)c1 (racemic) [Example 38, (rac) 3-(3-Cyanophenyl)-N-(4-(pyrrolidin-3-yl)phenyl)-1H-pyrazole-5-carboxamide hydrochloride]	0.0021	0.0042
CCn1nc(-c2ccc(C#N)cc2)cc1C(=O)Nc1ccc([C@H]2CNCCO2)cc1 [Example 26, (S)-3-(4-cyanophenyl)-1-ethyl-N-(4-(morpholin-2-yl)phenyl)-1H-pyrazole-5-carboxamide hydrochloride]	0.0734	0.0316
Cn1nc(-c2ccccc2)cc1C(=O)Nc1ccc([C@H]2CNCCO2)cc1 [Example 5, (S)-1-methyl-N-(4-(morpholin-2-yl)phenyl)-3-phenyl-1H-pyrazole-5-carboxamide hydrochloride]	0.0072	0.0045
O=C(Nc1ccc([C@@H]2CNCCO2)cc1)c1ccn(-c2ccc(F)cc2)n1 [Example 31, (R)-1-(4-Fluorophenyl)-N-(4-(morpholin-2-yl)phenyl)-1H-pyrazole-3-carboxamide hydrochloride]	0.0013	0.0024
Cn1nc(-c2ccc(C#N)cc2)cc1C(=O)Nc1ccc([C@H]2CNCCO2)cc1 [Example 21, (S)-3-(4-cyanophenyl)-1-methyl-N-(4-(morpholin-2-yl)phenyl)-1H-pyrazole-5-carboxamide hydrochloride]	0.0053	0.0055
CCn1nc(-c2cccc(OC(F)F)c2)cc1C(=O)Nc1ccc([C@H]2CNCCO2)cc1 [Example 42, (S)-3-(3-(Difluoromethoxy)phenyl)-1-ethyl-N-(4-(morpholin-2-yl)phenyl)-1H-pyrazole-5-carboxamide hydrochloride]	0.001	0.0021
O=C(Nc1ccc([C@H]2CNCCO2)cc1)c1ccn(-c2ccnc(C(F)(F)F)n2)n1 [Example 54, (S)—N-(4-(Morpholin-2-yl)phenyl)-1-(2-(trifluoromethyl)pyrimidin-4-yl)-1H-pyrazole-3-carboxamide hydrochloride]	0.0065	0.0088
